Laboratory results: publication PMC10342075, “Blunting Neuroinflammation by Targeting the Immunoproteasome with Novel Amide Derivatives” (International Journal of Molecular Sciences, 2023)

Assays:
[1] = target: T1, β5i subunit of 20S immunoproteasome (LMP7) (Homo sapiens, UniProt P28062); assay: fluorogenic Suc-Leu-Leu-Val-Tyr-AMC hydrolysis (chymotrypsin-like activity) with purified human […] immunoproteasome; format: biochemical
T1 construct: gene PSMB8; human 20S immunoproteasome isolated from human spleen; with 20S immunoproteasome (other subunits)
T1 sequence (P28062 73-276): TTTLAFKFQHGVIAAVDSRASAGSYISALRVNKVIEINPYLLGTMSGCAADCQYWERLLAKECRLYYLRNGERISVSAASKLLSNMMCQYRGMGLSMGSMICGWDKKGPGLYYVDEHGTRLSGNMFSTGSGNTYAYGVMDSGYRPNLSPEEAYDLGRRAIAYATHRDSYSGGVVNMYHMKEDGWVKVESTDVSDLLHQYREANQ

[2] = target: T2, β5c subunit of 20S proteasome (Homo sapiens, UniProt P28074); assay: fluorogenic Suc-Leu-Leu-Val-Tyr-AMC hydrolysis (chymotrypsin-like activity) with purified human […] proteasome; format: biochemical
T2 construct: gene PSMB5; human 20S proteasome isolated from human erythrocytes; with 20S proteasome (other subunits)
T2 sequence (P28074 60-263): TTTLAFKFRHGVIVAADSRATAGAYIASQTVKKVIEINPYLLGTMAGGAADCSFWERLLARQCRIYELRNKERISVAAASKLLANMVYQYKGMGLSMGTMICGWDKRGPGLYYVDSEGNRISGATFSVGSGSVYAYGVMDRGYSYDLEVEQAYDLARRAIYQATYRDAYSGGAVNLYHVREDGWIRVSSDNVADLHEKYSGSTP

Row | Structure (SMILES) | IC50 [1] [µM] | IC50 [2] [µM]
1 | O=C(NCCc1ccccc1)[C@H](CCc1ccccc1)n1ccccc1=O [KJ3] | 7.61 ± 0.76 | –
2 | O=C(NCc1ccccc1)[C@H](Cc1ccccc1)n1ccccc1=O [KJ9] | 16.5 ± 0.35 | 6.9 ± 0.18
